From ChEMBL document CHEMBL1201862, “PubChem BioAssay data set” (2004)
Calls of active or inactive are those of the source.

Assays:
Chaperone protein dnaK = Chaperone protein dnaK (Escherichia coli, UniProt C3TRK2); experiment: DnaK beta-domain binding affinity, SAR follow-up, orthogonal assay for DnaK modulator project, biophysical, isothermal titration calorimetry, full-length DnaK (AID 1495)
[1] = inhibitors of intracellular T. cruzi replication, confirmation, NIH3T3 host cells, beta-gal luminescence (AID 2044); type: functional, cell-based;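 note: intracellular parasites grown in NIH/3T3 mouse fibroblasts as host cells; luminescent beta-galactosidase reporter signal from transgenic T. cruzi replicating inside host cells; inhibitors lower the luminescence signal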
[2] = tested on: Streptococcus sp. 'group A'; experiment: growth inhibition of control SK(-) GAS strain, dose response, counter-screen for streptokinase expression inhibitor project, luminescence, kanamycin, BacTiterGlo, confirmation (AID 1900); type: functional, organism-based
[3] = target: Serine/threonine-protein phosphatase PP1-alpha catalytic subunit (Homo sapiens, UniProt P62136); experiment: PP1 phosphatase inhibitors, dose response, biochemical, fluorescence (AID 2403);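 note: phosphatase turnover of OMFP into fluorescent 3-O-methylfluorescein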
[4] = cytotoxicity toward NIH3T3 fibroblasts, dose response, counter-screen, cell-based, ATP luminescence, mouse fibroblasts (AID 2010); type: functional;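 note: cells exposed to compound for about 90 hours before reading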
Streptococcus = experiment: Group A Streptococcus viability loss, dose response, counter-screen for streptokinase expression inhibitor project, luminescence, BacTiterGlo (AID 1915); type: functional, organism-based;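 note: potency for reduction of bacterial viability or growth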
Streptokinase A = target: T1, Streptokinase A (Streptococcus pyogenes serotype M1, UniProt P10520); experiment: S. pyogenes streptokinase expression inhibitors, potency, dose response, plasminogen activation absorbance, OD405 (AID 1914); type: functional, Streptococcus pyogenes M1 GAS;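 note: secreted streptokinase activity via plasminogen activation per viability signal from cell pellet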
T1 sequence (P10520 whole entry): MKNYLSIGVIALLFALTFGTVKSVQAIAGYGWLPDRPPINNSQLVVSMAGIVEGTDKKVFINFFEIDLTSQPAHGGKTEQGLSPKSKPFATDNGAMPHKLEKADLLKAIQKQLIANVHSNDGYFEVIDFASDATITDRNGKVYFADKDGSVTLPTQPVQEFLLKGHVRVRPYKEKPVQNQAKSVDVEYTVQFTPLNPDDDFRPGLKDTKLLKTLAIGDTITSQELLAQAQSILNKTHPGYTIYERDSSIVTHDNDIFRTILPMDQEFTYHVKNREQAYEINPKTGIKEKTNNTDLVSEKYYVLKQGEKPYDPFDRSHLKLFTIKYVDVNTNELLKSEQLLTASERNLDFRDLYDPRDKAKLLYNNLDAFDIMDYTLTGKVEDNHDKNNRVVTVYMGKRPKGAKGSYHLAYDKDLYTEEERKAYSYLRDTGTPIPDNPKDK

[5] = target: Serine/threonine-protein phosphatase (Homo sapiens, UniProt Q9BPW0); experiment: Counterscreen for inhibitors of PP1: fluorescence-based biochemical high throughput dose response assay to identify inhibitors of Protein Phosphatase 5 (PP5). [Related pubchem assays: 2034 (Summary (PP5 inhibitors)), 1987 (PP5 inhibitors in singlate), 2235 (PP1 inhibitors in singlate)]
[6] = target: T2, Microphthalmia-associated transcription factor (Homo sapiens, UniProt O75030); experiment: TRPM1 promoter luciferase signal decrease, dose response, MITF inhibitor project, cell-based, SK-MEL-5, cherry-picked, set 3 (AID 493073); type: functional
T2 sequence (O75030 whole entry): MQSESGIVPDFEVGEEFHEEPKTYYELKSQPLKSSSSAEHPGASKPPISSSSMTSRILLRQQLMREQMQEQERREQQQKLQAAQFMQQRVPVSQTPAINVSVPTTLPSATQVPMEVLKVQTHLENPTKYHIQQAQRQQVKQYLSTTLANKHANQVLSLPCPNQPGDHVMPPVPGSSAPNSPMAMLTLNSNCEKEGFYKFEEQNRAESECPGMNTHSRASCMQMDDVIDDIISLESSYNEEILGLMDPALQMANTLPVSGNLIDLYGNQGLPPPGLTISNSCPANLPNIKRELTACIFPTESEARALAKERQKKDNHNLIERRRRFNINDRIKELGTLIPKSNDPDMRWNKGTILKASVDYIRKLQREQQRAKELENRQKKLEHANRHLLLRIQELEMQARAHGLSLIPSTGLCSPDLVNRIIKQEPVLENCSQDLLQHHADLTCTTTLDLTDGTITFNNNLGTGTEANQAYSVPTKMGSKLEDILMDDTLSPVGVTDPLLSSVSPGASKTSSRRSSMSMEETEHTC

[7] = Luminescence-based counterscreen assay for KLF5 inhibitors: dose response cell-based high throughput screening assay to identify cytotoxic compounds using the IEC-6 intestinal epithelial cell line. [Related pubchem assays: 1700 (Primary screen.), 1834 (Confirmation screen.), 1858 (Summary AID.), 1905 (Counterscreen.)]; type: functional
[8] = target: T3, Eukaryotic translation initiation factor 2-alpha kinase 3 (Homo sapiens, UniProt Q9NZJ5); experiment: Dose response cell-based high-throughput screening assay to measure PERK inhibition. [Related pubchem assays: 1416 ]; type: functional
[9] = target: T3, Eukaryotic translation initiation factor 2-alpha kinase 3; experiment: Counterscreen assay for PERK inhibitors: Dose response cell-based high throughput screening assay to measure inhibition of PERK at 6 hours. [Related pubchem assays: 1522, 1416 ]; type: functional
Vero [10] = experiment: Vero E6 cell cytotoxicity, SAR follow-up, cytotoxicity control for West Nile virus antiviral project, synthesized analogs (AID 2244); type: functional; details: Chlorocebus sabaeus
Vero [11] = experiment: cytotoxicity of synthesized analogs in Vero cells, SAR follow-up, cytotoxicity control for West Nile virus antiviral project, cell-based, set II (AID 2402); type: functional; details: Chlorocebus sabaeus
cells = type: functional, cell-based; details: HEK-CNG
Galanin receptor type 3 = target: T4, Galanin receptor type 3 (Homo sapiens, UniProt O60755); experiment: Fluorescence-based cell-based primary high throughput dose response assay to identify antagonists of the Galanin Receptor 3 (GalR3).; type: functional
T4 sequence (O60755 whole entry): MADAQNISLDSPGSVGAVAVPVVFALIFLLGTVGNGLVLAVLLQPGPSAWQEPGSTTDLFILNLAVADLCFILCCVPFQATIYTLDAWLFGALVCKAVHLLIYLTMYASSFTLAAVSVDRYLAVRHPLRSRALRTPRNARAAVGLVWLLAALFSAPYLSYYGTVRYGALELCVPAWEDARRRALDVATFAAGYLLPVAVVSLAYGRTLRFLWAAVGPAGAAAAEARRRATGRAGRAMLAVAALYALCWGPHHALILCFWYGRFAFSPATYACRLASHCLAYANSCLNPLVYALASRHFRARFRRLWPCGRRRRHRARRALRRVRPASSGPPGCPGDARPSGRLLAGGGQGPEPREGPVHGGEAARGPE

[12] = target: T5, Neuropeptide Y receptor type 2 (Homo sapiens, UniProt P49146); experiment: Fluorescence-based cell-based high-throughput dose response assay for agonists of NPY-Y2. [Related pubchem assays: 1703 (Screening assay (CNGC inhibitors).), 1359 (Screening assay (NPY-Y2 potentiators or agonists).), 1304 (Screening assay (NPY-Y1 potentiators or agonists).), 1710 (Screening assay (NPY-Y2 agonists).), 1791 (Summary AID.)]; type: functional
T5 sequence (P49146 whole entry): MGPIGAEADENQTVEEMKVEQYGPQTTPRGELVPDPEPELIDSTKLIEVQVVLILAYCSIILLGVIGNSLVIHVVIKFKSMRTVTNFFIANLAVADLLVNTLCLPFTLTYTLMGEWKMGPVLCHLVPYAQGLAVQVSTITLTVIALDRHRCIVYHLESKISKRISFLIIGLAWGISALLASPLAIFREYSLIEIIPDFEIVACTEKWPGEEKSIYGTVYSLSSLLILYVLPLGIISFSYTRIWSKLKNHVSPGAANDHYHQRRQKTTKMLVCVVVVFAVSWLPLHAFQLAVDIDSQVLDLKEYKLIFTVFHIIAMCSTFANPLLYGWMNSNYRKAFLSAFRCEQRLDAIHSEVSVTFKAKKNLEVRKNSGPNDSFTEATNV

[13] = target: T6, Neuropeptide Y receptor type 1 (Homo sapiens, UniProt P25929); experiment: Fluorescence-based counterscreen for agonists of NPY-Y2: cell-based high-throughput dose response assay for agonists of NPY-Y1.; type: functional
T6 sequence (P25929 whole entry): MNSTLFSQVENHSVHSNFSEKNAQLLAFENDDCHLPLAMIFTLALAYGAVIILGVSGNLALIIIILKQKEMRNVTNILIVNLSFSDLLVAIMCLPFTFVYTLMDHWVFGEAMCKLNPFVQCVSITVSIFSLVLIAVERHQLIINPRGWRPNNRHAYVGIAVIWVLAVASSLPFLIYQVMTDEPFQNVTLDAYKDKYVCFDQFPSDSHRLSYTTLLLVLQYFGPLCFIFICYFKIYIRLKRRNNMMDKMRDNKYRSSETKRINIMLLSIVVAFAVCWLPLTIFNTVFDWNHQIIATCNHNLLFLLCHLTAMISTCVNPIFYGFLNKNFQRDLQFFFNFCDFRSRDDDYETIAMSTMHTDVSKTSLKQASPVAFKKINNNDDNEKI

HEK293 = experiment: Fluorescence-based counterscreen for potentiators or agonists of NPY-Y2: cell-based high-throughput dose response assay to identify inhibitors of cyclic nucleotide gated ion channel (CNGC) activity. In this assay, the parental HEK293 cell line transfected with a cyclic-nucleotide gated ion channel (CNGC)-based cAMP sensor is used to measure inhibition of isoproterenol-induced CNGC activity by test compound.; type: functional; details: Homo sapiens;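 note: stimulus is 1 µM isoproterenol at EC100 plus PDE inhibitor Ro 20-1724 at 25 µM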
[14] = target: Cyclin-dependent kinase 5/CDK5 activator 1 (Homo sapiens, UniProt Q00535); experiment: CDK5/p35 kinase inhibitors, dose response, biochemical, cherry-picked samples, set 2 (AID 504545)
[15] = target: T7, DNA repair protein RAD52 homolog (Homo sapiens, UniProt P43351); type: functional, biochemical
T7 sequence (P43351 whole entry): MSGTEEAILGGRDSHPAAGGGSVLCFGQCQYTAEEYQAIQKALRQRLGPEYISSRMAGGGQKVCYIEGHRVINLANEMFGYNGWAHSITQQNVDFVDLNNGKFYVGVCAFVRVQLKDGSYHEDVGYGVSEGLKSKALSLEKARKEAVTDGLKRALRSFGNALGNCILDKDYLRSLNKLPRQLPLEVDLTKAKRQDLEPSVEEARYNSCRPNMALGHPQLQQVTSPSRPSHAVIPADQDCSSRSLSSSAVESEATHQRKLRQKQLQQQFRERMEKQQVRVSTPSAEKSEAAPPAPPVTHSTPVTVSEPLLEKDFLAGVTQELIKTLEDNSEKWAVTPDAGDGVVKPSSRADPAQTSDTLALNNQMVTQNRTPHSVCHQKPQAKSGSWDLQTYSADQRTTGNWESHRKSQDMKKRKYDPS

[16] = target: G-protein coupled receptor 35 (Homo sapiens, UniProt Q9HC97); experiment: GPR35 antagonists blocking zaprinast-driven arrestin recruitment, primary screen, imaging, U2OS, beta-arrestin-GFP, zaprinast agonist (AID 2058); type: functional;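 note: antagonist potency meaning inhibition of agonist-induced arrestin redistribution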
[17] = target: Acyl-homoserine lactone acylase PvdQ (Pseudomonas aeruginosa (strain LESB58), UniProt Q9I194); experiment: P. aeruginosa PvdQ acylase inhibitors, dose response, biochemical, fluorescence, plate reader and imaging, cherry-picks (AID 493231)
Cytochrome P450 2D6 = Cytochrome P450 2D6 (Homo sapiens, UniProt P10635); experiment: qHTS Assay for Inhibitors and Substrates of Cytochrome P450 2D6. [Related pubchem assays: 410 ]; type: ADME; details: read-out: Potency
[18] = target: Voltage-gated N-type calcium channel alpha-1B subunit/Amyloid beta A4 precursor protein-binding family A member 1 (Homo sapiens, UniProt Q00975+Q02410); experiment: disruptors of Mint-PDZ/N-type channel peptide interaction – biochemical, HTRF, set 2, SAR follow-up (AID 434980); type: functional
[19] = target: Melanin-concentrating hormone receptor 1 (Homo sapiens, UniProt Q99705); experiment: Late-stage fluorescence-based counterscreen for antagonists of the G-protein coupled receptor 7 (GPR7): cell-based dose response assay to identify antagonists of the melanin-concentrating hormone receptor 1 (MCHR1). [Related pubchem assays (depositor defined):AID1861, AID1880, AID1952, AID2148, AID2251, AID2257, AID485339]; type: functional;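 note: stimulated with 30 nM MCH peptide agonist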
[20] = target: Heat shock cognate 71 kDa protein (Homo sapiens, UniProt P11142); experiment: In Vitro Hsc70 Dose Response Fluorescence Polarization Assay. [Related pubchem assays: 1072 ]
[21] = target: Heat shock 70 kDa protein 1A (Homo sapiens, UniProt P0DMV8); experiment: Hsp70 inhibitors, SAR follow-up, biochemical, fluorescence polarization (AID 1072)
Staphylococcus aureus = experiment: Inhibitors of Bacterial Quorum Sensing Structure Activity Relationship (SAR) Analysis: Dose Response Assay. [Related pubchem assays: 700, 527 ]; type: functional, organism-based
Genome polyprotein = Genome polyprotein (dengue virus type 2, UniProt P29990); experiment: Dengue-2 NS5 methyltransferase inhibitors, primary screen, biochemical, confirmation dose response (AID 588689); type: functional
Genome polyprotein, sequence (P29990 2492-3391 limits assumed): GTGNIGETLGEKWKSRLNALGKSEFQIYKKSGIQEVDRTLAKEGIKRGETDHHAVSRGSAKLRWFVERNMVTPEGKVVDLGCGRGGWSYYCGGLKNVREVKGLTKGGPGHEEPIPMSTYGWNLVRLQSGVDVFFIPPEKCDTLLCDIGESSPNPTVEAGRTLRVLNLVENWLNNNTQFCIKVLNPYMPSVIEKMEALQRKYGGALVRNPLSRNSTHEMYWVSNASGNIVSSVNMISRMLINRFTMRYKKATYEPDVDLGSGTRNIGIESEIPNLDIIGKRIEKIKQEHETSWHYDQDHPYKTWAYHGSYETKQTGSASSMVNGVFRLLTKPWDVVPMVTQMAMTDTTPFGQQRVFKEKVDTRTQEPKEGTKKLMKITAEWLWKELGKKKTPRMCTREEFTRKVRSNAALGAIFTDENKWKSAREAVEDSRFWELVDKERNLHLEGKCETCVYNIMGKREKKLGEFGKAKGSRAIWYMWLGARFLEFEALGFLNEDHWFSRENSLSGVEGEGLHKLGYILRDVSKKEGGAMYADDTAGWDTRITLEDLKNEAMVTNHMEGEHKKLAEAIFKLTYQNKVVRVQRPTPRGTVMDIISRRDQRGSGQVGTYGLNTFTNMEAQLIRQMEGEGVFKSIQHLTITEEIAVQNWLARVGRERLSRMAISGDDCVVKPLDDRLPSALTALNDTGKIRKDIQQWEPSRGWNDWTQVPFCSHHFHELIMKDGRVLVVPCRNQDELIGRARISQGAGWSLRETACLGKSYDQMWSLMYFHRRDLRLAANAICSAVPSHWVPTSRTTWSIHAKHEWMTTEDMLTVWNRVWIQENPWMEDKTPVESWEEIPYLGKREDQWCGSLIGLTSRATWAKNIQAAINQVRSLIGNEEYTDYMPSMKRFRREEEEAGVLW

T3 sequence (Q9NZJ5 whole entry): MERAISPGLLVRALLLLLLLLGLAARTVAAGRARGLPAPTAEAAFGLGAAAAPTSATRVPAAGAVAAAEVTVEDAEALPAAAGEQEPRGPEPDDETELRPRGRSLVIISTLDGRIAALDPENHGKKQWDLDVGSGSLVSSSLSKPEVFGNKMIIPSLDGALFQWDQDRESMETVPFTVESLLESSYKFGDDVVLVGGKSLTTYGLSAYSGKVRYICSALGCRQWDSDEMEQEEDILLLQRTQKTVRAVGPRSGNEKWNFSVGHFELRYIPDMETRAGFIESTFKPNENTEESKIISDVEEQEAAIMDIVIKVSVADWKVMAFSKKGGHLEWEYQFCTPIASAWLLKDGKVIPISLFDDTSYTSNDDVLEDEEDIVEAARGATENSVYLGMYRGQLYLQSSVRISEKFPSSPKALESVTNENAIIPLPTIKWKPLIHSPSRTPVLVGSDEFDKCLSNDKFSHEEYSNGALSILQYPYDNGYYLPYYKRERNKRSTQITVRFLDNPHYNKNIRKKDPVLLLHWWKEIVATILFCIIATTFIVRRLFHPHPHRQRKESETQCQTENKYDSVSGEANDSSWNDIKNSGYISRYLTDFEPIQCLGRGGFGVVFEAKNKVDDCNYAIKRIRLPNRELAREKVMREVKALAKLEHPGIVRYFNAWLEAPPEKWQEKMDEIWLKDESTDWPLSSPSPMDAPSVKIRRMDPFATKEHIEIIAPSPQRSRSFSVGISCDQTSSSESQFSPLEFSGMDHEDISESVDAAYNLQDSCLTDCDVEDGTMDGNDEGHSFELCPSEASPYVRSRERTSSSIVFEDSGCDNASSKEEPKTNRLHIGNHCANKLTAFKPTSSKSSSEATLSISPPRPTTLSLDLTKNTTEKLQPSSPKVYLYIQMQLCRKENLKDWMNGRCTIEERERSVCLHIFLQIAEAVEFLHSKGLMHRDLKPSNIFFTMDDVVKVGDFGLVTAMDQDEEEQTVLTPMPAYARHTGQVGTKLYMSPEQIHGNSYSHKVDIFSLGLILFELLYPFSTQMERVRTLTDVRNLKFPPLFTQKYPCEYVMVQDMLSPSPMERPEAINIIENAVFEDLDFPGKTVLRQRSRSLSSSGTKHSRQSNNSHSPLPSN
Chaperone protein dnaK, sequence (C3TRK2 whole entry): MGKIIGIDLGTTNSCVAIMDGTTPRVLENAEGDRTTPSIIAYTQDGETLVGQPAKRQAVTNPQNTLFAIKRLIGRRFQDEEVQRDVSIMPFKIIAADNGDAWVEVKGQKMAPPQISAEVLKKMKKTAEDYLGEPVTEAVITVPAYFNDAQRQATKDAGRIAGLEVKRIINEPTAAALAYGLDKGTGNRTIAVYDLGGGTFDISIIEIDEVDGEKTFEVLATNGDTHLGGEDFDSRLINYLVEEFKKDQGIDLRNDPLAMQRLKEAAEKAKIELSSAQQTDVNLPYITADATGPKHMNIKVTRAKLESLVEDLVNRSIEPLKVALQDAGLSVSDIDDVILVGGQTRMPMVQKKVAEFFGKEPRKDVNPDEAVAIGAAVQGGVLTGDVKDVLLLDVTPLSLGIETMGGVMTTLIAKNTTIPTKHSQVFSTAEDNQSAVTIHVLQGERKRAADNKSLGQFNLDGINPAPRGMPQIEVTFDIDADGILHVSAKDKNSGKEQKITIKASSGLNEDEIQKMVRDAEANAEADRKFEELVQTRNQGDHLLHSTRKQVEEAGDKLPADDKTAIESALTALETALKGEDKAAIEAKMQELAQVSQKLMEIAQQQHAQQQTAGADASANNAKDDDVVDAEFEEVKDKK
G-protein coupled receptor 35, sequence (Q9HC97 whole entry): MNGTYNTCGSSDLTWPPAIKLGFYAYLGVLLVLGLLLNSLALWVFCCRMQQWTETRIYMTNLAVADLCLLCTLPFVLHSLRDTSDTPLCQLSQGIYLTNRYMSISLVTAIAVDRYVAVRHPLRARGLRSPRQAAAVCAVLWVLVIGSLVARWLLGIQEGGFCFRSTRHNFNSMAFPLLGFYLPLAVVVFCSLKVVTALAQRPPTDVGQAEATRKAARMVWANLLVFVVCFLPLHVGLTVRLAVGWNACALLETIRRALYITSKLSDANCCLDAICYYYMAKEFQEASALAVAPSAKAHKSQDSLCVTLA
Cytochrome P450 2D6, sequence (P10635 whole entry): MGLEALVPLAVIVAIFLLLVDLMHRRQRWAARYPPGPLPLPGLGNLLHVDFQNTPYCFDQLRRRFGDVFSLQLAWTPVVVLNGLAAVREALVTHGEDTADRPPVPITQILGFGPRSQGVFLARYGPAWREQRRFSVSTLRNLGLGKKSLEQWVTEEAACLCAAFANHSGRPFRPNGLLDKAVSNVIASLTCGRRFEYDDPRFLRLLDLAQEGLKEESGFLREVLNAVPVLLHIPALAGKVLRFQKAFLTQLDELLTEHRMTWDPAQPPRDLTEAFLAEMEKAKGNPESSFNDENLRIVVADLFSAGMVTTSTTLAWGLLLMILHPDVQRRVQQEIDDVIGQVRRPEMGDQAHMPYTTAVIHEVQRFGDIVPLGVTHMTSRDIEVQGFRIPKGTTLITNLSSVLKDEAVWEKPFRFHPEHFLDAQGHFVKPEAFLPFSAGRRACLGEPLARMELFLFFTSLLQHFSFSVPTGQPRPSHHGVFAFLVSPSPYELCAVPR
Serine/threonine-protein phosphatase PP1-alpha catalytic subunit, sequence (P62136 whole entry): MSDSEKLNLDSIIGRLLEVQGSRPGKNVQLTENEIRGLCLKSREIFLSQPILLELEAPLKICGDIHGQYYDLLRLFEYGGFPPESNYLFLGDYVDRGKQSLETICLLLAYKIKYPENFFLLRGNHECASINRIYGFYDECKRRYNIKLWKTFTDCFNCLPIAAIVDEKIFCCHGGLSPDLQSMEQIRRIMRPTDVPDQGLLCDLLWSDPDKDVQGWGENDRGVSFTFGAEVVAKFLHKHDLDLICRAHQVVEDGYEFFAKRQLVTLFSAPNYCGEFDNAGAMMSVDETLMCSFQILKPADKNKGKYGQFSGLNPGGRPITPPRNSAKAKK
Melanin-concentrating hormone receptor 1, sequence (Q99705 whole entry): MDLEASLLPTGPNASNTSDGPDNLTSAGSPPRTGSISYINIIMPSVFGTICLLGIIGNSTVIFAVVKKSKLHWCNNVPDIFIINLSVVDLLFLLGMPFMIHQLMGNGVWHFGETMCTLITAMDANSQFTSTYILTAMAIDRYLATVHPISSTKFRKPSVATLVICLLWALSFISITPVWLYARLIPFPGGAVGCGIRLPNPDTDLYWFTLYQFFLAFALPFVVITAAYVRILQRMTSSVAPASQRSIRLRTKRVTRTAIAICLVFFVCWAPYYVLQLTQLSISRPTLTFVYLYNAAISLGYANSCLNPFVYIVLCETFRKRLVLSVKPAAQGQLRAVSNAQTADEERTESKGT
Cyclin-dependent kinase 5/CDK5 activator 1, sequence (Q00535 whole entry): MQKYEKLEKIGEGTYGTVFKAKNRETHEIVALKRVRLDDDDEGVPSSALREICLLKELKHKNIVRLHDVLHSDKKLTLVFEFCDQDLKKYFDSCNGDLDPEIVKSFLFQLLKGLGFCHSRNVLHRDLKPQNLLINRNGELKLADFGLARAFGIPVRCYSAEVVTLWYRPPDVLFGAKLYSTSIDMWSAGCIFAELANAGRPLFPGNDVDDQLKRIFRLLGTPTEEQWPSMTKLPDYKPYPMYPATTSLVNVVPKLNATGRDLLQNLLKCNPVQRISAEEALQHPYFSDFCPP
Cyclin-dependent kinase 5/CDK5 activator 1, sequence (Q15078 whole entry, further chain): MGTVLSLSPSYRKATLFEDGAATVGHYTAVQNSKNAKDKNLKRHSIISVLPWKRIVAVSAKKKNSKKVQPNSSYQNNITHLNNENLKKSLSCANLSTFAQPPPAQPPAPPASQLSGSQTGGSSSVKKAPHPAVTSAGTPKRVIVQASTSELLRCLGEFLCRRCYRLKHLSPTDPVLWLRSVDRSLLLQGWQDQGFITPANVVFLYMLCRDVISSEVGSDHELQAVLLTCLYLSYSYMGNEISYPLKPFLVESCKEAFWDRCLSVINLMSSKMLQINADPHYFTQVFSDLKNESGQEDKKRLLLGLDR

O=C(Nc1ccc2[nH]ccc2c1)c1cccs1
Kd (Chaperone protein dnaK): 12.7 µM (active)

COc1ccc(OCCCC(=O)Nc2nc(-c3ccccn3)cs2)cc1
EC50 [1]: 3.24 µM (active) | EC50 [2]: 31.2 µM (active) | IC50 [3]: 4.59 µM (active) | EC50 [4]: 4.35 µM (active) | EC50 (Streptococcus): > 150 µM (not active) | EC50 (Streptokinase A): > 150 µM (not active) | IC50 [5]: > 67 µM (not active)

CCCc1ccc(-c2ccc(/C=C/C(=O)O)cc2)nc1
AC50 [6]: 0.039 µM (active) | IC50 [7]: > 39.8 µM (not active)

COc1cc([N+](=O)[O-])cc2sc(NC(=O)C(C)(C)C)nc12
EC50 [8]: > 55.7 µM (not active) | EC50 [9]: > 55.7 µM (not active)

CCCN(C(=O)c1ccccc1Cl)c1nc(-c2ccc(OC)cc2)cs1
CC50 (Vero [10]): > 40 µM (active) | CC50 (Vero [11]): 63.2 µM (active)

CCCc1cc(-c2[nH]ncc2-c2ccc(C(=O)OCC)o2)c(O)cc1O
EC50 (cells): > 29.9 µM (inactive) | IC50 (Galanin receptor type 3): 12.8 µM (inactive) | EC50 [12]: > 35.4 µM (not active) | EC50 [13]: 18.5 µM (not active) | EC50 (HEK293): > 35.4 µM (not active) | AC50 [14]: 10 µM (active)

CN(C)CCCNC(=O)/C(=C\c1ccc(-c2ccc(Br)cc2)o1)NC(=O)c1ccccc1
AC50 [15]: 15.6 µM (active) | AC50 [6]: 7.51 µM (active) | IC50 [16]: > 32 µM (inactive)

CC1SCC(NC(=O)c2cccc(Cl)c2)CS1 (stereo unspecified)
AC50 [17]: > 100 µM (inactive)

COc1ccc2c(=O)cc(-c3ccc(O)cc3)oc2c1
AC50 (Cytochrome P450 2D6): 15.8 µM (inconclusive)

O=C(Nc1ncc(-c2ccccc2)o1)c1cc(-c2ccco2)nc2ccccc12
IC50 [18]: > 56.8 µM (inactive)

COc1ccc(Oc2c(Br)cnn(-c3ccc(C(C)C)cc3)c2=O)cc1
IC50 [19]: 0.72 µM (active)

O=C(O)C1CCCCC1c1c2ccc(=O)c(O)c-2oc2c(O)c(O)ccc12 (stereo unspecified)
IC50 [20]: 42.4 µM (active) | IC50 [21]: 9.85 µM (active)

CC(C)c1ccc(S(=O)(=O)c2nnn3c2nc(O)c2ccccc23)cc1 [SAVIRIN]
IC50 (Staphylococcus aureus): 0.25 µM (active) | IC50 (Genome polyprotein): 51.5 µM (active)
